Like-named read-outs stand apart in the source and are kept apart here.
How the values were obtained:
Assay in all cases: Kinase binding screen
Conditions in all cases: read-out: Percent Control at 100 nM Compound Concentration
NIK = NIK (Homo sapiens (Human), UniProt Q99558)
KIT(D816V) = KIT(D816V) (Homo sapiens (Human), UniProt P10721, D816V)
ROS1 = ROS1 (Homo sapiens (Human), UniProt P08922)
ERBB2 = ERBB2 (Homo sapiens (Human), UniProt P04626)
MEK4 = MEK4 (Homo sapiens (Human), UniProt P45985)
AKT3 = AKT3 (Homo sapiens (Human), UniProt Q9Y243)
PIK3CA(M10431) = PIK3CA(M10431) (Homo sapiens (Human), UniProt P42336, M1043I)
[1] = target: RSK3(Kin.Dom.1-N-terminal) (Homo sapiens (Human), UniProt Q15349)
CDK2 = CDK2 (Homo sapiens (Human), UniProt P24941)
FLT3(K663Q) = FLT3(K663Q) (Homo sapiens (Human), UniProt P36888, K663Q)
MKK7 = MKK7 (Homo sapiens (Human), UniProt O14733)
SRPK1 = SRPK1 (Homo sapiens (Human), UniProt Q96SB4)
LIMK2 = LIMK2 (Homo sapiens (Human), UniProt P53671)
SGK3 = SGK3 (Homo sapiens (Human), UniProt Q96BR1)
HASPIN = HASPIN (Homo sapiens (Human), UniProt Q8TF76)
ERK2 = ERK2 (Homo sapiens (Human), UniProt P28482)
MAK = MAK (Homo sapiens (Human), UniProt P20794)
EIF2AK1 = EIF2AK1 (Homo sapiens (Human), UniProt Q9BQI3)
HIPK3 = HIPK3 (Homo sapiens (Human), UniProt Q9H422)
MYLK = MYLK (Homo sapiens (Human), UniProt Q15746)
RIPK5 = RIPK5 (Homo sapiens (Human), UniProt Q6XUX3)
WNK4 = WNK4 (Homo sapiens (Human), UniProt Q96J92)
LCK = LCK (Homo sapiens (Human), UniProt P06239)
DRAK1 = DRAK1 (Homo sapiens (Human), UniProt Q9UEE5)
AMPK-alpha2 = AMPK-alpha2 (Homo sapiens (Human), UniProt P54646)
CDK4-cyclinD3 = CDK4-cyclinD3 (Homo sapiens (Human), UniProt P11802)

Chain of AMPK-alpha2 (P54646 whole entry): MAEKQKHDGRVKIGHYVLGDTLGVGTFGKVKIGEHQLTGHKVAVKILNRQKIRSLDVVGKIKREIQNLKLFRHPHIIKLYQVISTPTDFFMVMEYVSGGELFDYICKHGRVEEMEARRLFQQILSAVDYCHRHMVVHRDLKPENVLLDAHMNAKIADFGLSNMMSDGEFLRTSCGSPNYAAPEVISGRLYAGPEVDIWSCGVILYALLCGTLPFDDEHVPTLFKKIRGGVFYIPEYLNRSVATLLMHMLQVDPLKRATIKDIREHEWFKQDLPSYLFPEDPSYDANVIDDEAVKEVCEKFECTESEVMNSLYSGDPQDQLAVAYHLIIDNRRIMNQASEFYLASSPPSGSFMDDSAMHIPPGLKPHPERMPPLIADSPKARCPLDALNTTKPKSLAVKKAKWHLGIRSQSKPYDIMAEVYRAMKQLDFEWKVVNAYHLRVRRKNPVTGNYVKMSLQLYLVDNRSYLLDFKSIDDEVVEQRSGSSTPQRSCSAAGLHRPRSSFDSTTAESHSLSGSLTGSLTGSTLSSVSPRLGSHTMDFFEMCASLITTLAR
Chain of ERK2 (P28482 whole entry): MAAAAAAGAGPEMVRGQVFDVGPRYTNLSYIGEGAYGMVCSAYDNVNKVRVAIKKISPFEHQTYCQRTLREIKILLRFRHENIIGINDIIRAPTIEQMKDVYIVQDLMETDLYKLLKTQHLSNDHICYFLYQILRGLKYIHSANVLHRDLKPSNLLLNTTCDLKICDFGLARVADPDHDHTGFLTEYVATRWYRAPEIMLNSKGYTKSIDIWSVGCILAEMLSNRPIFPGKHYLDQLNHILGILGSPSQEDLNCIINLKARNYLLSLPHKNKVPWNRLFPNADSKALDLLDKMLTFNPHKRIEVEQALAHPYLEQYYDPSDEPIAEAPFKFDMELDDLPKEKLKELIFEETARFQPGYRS
Chain of MKK7 (O14733 whole entry): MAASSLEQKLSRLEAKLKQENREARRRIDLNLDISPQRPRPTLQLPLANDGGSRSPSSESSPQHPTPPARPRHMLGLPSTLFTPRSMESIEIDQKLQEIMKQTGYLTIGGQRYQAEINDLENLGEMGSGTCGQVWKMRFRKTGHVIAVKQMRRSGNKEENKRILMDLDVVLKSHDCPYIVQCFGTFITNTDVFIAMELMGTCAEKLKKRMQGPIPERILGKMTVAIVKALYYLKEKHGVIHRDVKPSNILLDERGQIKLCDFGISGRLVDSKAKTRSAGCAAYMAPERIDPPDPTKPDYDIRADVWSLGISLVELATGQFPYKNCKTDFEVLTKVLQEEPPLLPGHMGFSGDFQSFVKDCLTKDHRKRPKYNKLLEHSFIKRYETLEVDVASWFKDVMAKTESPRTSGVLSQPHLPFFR
Chain of AKT3 (Q9Y243 whole entry): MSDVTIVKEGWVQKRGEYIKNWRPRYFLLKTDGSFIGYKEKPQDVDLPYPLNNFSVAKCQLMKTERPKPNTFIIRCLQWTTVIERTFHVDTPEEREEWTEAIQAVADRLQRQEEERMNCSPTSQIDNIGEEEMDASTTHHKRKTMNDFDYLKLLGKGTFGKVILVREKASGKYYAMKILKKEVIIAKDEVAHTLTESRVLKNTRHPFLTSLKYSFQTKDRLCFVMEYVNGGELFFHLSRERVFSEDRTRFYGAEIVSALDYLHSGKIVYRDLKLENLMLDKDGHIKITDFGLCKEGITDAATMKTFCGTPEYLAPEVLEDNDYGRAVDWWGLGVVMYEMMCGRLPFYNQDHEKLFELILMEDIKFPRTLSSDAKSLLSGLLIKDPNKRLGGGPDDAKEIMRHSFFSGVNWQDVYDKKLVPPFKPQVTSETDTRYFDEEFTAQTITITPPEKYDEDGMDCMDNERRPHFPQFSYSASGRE
Chain of LCK (P06239 whole entry): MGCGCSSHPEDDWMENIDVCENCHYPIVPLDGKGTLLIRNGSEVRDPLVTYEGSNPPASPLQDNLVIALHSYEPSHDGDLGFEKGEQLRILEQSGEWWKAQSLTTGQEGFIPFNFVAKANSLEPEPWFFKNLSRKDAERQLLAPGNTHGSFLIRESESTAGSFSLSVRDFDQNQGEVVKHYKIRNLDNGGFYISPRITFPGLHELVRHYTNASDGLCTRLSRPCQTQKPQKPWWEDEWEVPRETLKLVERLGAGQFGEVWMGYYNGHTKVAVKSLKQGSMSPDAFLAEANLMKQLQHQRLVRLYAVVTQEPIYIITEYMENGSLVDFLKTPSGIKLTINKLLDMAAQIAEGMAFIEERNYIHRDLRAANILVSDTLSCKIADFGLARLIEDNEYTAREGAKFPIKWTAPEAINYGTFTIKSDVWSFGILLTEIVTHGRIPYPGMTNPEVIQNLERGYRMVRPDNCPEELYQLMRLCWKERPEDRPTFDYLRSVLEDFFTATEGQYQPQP
Chain of HASPIN (Q8TF76 whole entry): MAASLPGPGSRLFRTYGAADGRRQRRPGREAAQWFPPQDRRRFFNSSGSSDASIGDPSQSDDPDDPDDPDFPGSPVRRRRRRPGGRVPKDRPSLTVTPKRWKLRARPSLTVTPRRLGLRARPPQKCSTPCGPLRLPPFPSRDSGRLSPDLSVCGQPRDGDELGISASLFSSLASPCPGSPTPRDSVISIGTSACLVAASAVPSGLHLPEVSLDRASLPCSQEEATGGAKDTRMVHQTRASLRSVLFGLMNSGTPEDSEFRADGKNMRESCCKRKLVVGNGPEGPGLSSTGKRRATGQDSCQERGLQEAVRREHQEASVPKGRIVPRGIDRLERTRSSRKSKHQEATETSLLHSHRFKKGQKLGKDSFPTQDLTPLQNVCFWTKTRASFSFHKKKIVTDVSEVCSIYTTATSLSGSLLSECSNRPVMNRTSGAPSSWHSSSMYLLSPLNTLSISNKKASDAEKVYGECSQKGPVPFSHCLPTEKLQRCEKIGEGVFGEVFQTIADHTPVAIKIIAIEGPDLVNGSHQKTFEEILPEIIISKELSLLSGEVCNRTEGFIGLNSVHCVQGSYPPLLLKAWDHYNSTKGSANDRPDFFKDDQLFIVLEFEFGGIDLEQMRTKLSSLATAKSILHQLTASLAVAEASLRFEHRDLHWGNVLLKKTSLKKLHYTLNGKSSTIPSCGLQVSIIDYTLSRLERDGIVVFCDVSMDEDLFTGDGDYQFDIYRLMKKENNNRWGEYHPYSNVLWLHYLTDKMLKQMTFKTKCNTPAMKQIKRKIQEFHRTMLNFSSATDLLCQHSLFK
Chain of DRAK1 (Q9UEE5 whole entry): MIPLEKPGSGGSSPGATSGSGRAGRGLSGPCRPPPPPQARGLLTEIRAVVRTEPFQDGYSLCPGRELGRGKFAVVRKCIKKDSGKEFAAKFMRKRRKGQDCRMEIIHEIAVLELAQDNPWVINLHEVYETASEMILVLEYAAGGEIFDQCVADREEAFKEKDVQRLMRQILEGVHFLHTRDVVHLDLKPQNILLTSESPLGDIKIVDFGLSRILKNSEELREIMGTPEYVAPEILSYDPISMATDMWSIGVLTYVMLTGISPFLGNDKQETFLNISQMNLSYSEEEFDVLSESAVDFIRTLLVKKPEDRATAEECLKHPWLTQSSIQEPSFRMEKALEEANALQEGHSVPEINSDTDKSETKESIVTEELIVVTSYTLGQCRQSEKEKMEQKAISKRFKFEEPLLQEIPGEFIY
Chain of HIPK3 (Q9H422 whole entry): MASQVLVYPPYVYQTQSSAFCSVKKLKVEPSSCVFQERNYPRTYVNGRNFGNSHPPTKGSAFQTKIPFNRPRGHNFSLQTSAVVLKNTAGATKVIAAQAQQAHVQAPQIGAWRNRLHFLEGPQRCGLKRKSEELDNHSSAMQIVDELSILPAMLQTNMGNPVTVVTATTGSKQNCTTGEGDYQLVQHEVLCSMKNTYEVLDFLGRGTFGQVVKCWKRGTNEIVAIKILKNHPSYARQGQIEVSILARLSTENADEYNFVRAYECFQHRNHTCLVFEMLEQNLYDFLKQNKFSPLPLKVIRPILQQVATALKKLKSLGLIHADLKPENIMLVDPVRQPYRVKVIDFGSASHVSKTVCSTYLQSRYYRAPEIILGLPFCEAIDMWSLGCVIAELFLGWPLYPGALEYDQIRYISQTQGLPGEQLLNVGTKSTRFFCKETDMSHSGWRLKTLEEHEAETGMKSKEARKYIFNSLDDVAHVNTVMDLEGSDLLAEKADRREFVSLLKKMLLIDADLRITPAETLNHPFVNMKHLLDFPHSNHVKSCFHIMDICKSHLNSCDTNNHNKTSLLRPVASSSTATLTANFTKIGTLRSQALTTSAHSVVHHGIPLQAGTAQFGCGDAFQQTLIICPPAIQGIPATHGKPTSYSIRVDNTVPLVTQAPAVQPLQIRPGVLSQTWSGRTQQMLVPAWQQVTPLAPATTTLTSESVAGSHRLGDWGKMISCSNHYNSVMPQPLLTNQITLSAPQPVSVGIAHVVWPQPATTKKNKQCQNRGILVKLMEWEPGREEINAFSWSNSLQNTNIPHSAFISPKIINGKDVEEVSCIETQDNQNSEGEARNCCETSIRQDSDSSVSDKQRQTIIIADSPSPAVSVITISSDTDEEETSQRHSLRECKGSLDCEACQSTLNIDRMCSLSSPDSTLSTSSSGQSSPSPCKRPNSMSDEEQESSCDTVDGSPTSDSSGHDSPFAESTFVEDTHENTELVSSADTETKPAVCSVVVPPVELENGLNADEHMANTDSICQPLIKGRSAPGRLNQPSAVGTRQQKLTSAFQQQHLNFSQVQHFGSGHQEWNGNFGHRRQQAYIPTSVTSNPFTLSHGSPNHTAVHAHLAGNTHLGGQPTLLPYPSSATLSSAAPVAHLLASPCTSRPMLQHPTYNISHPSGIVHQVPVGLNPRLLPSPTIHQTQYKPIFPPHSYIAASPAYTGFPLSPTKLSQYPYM
Chain of RSK3(Kin.Dom.1-N-terminal) (Q15349 59-318): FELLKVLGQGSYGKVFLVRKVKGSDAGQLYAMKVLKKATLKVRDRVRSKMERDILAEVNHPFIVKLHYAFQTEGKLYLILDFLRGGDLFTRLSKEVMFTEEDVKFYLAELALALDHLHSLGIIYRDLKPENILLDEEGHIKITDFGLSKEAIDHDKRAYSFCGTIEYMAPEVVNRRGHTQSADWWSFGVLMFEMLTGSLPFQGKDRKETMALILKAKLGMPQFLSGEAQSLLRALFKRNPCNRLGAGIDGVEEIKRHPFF

CN(C[C@@H](O)Cc1ccccc1)C(=O)c1cncc(C#Cc2cnn(C(F)F)c2)c1 [Example 2, (S)-5-((1-(difluoromethyl)-1H-pyrazol-4-yl)ethynyl)-N-(2-hydroxy-3-phenylpropyl)-N-methylnicotinamide]
remaining activity at 0.1 µM (NIK; NIK): 84% | remaining activity at 0.1 µM (KIT(D816V); KIT(D816V)): 100% | remaining activity at 0.1 µM (ROS1; ROS1): 100% | remaining activity at 0.1 µM (ERBB2; ERBB2): 70% | remaining activity at 0.1 µM (MEK4; MEK4): 100% | remaining activity at 0.1 µM (AKT3; AKT3): 100% | remaining activity at 0.1 µM (PIK3CA(M10431); PIK3CA(M10431)): 92% | remaining activity at 0.1 µM ([1]; RSK3(Kin.Dom.1-N-terminal)): 97% | remaining activity at 0.1 µM (CDK2; CDK2): 100% | remaining activity at 0.1 µM (FLT3(K663Q); FLT3(K663Q)): 100% | remaining activity at 0.1 µM (MKK7; MKK7): 98% | remaining activity at 0.1 µM (SRPK1; SRPK1): 100% | remaining activity at 0.1 µM (LIMK2; LIMK2): 95% | remaining activity at 0.1 µM (SGK3; SGK3): 100% | remaining activity at 0.1 µM (HASPIN; HASPIN): 86% | remaining activity at 0.1 µM (ERK2; ERK2): 100% | remaining activity at 0.1 µM (MAK; MAK): 100% | remaining activity at 0.1 µM (EIF2AK1; EIF2AK1): 100% | remaining activity at 0.1 µM (HIPK3; HIPK3): 100% | remaining activity at 0.1 µM (MYLK; MYLK): 87% | remaining activity at 0.1 µM (RIPK5; RIPK5): 100% | remaining activity at 0.1 µM (WNK4; WNK4): 84% | remaining activity at 0.1 µM (LCK; LCK): 100% | remaining activity at 0.1 µM (DRAK1; DRAK1): 95% | remaining activity at 0.1 µM (AMPK-alpha2; AMPK-alpha2): 89% | remaining activity at 0.1 µM (CDK4-cyclinD3; CDK4-cyclinD3): 100%

CN(C[C@H](Cc1ccccc1)OP(=O)(O)O)C(=O)c1cncc(C#Cc2cnn(C(F)F)c2)c1 [Example 19, (S)-1-(5-((1-(difluoromethyl)-1H-pyrazol-4-yl)ethynyl)-N-methylnicotinamido)-3-phenylpropan-2-yl dihydrogen phosphate]
remaining activity at 0.1 µM (NIK): 88% | remaining activity at 0.1 µM (KIT(D816V)): 100% | remaining activity at 0.1 µM (ROS1): 91% | remaining activity at 0.1 µM (ERBB2): 65% | remaining activity at 0.1 µM (MEK4): 100% | remaining activity at 0.1 µM (AKT3): 100% | remaining activity at 0.1 µM (PIK3CA(M10431)): 85% | remaining activity at 0.1 µM [1]: 100% | remaining activity at 0.1 µM (CDK2): 100% | remaining activity at 0.1 µM (FLT3(K663Q)): 100% | remaining activity at 0.1 µM (MKK7): 96% | remaining activity at 0.1 µM (SRPK1): 100% | remaining activity at 0.1 µM (LIMK2): 93% | remaining activity at 0.1 µM (SGK3): 100% | remaining activity at 0.1 µM (HASPIN): 83% | remaining activity at 0.1 µM (ERK2): 100% | remaining activity at 0.1 µM (MAK): 100% | remaining activity at 0.1 µM (EIF2AK1): 96% | remaining activity at 0.1 µM (HIPK3): 88% | remaining activity at 0.1 µM (MYLK): 86% | remaining activity at 0.1 µM (RIPK5): 96% | remaining activity at 0.1 µM (WNK4): 81% | remaining activity at 0.1 µM (LCK): 95% | remaining activity at 0.1 µM (DRAK1): 100% | remaining activity at 0.1 µM (AMPK-alpha2): 100% | remaining activity at 0.1 µM (CDK4-cyclinD3): 100%

Source: patent US11767310B2, “Nicotinamide RIPK1 inhibitors” (AbbVie Inc., priority 2021, dated 2023)
